Consider 3 compounds from publication PMC11097166, “Imidazole-Derived Alkyl and Aryl Ethers: Synthesis, Characterization, In Vitro Anticancer and Antioxidant Activities, Carbonic Anhydrase I–II Inhibition Properties, and In Silico Studies” (ACS Omega, 2024).

Read-outs that look alike come from different tables or passages of the source.

For data set [1], the system named is MCF7 human breast adenocarcinoma cell line. Nature of the data set: MTT cell viability assay on MCF7. The class given is cell-based. The source says: (§1) 96-well plates were used for seeding cells. […] All compounds were run in three repetitions.
For orientation: Tetrazolium dyes change colour on reduction, which living cells bring about.

The test system of data set [2] is HT29 colon cancer cell line. Nature of the data set: MTT cell viability assay on HT29. Format: cell-based, human.
Description: as §1

In data set [3] the test system is C6 cell line. The data set is described as follows: Annexin V binding assay (flow cytometry) on C6. The class given is cell-based, rat. The settings on record: C6, IC50 dose, 24 h. The protocol:
(§2) Approximately 5 × 10^5 seeds of each cancer cell were seeded into six-well plates and allowed to adhere overnight. […] Cells harvested after trypsinization were suspended in PBS containing at least 1% FBS. The manufacturer’s instructions were then followed, and the Annexin V and dead cell reagent were mixed with the cells. Afterward, the percentage of dead, viable, early and late apoptotic cells was determined using the muse cell analyzer (Millipore) device.
A general note: Flow cytometry measures light scatter and fluorescence of single cells or particles in a stream.

Data set [4] has as its system C6 cell line. Nature of the data set: Cell cycle (DNA content) assay on C6. Format: cell-based, rat. The note with it: glioblastoma (C6), IC50 dose. The protocol:
(§3) DNA content (cell cycle) analyses were performed with the MUSE flow cytometry device. When the IC50 results obtained were evaluated, compounds 3a and 3b caused selective toxicity in the HT29 and C6 cancer cell lines compared to L929, respectively. Therefore, the main pathways of compounds 3a and 3b in cells were determined with the MUSE (cell cycle) kit.

Data set [5] relates to C6 rat glial tumor cell line. The data set is described as follows: MTT cell viability assay on C6. The class given is cell-based. The settings on record: 24 h incubation.
Description: as §1

The nature of data set [6]: MTT cell viability assay on L929. The settings on record: mouse, L929 fibroblast cells.
Description: (§5) Human breast adenocarcinoma cell line (MCF7), rat glial tumor cell line (C6), healthy mouse fibroblast cell line (L929), and colon cancer (HT29) cell line were purchased from ATCC (American type culture collection) and studied.
(§6) The cytotoxic effects of all compounds by MTT analysis on L929, HT29, MCF7, and C6 cell lines were investigated. 96-well plates were used for seeding cells. Approximately 1 × 10^4 cells were seeded in each well. Cells were allowed to adhere for 24 h, and then the compounds were applied at different concentrations. All compounds were run in three repetitions. Wells with a maximum of 100 μM compounds were incubated for 24 h. Three wells without compounds treated with only DMSO (with total volume of % 0.5) were used as negative controls, and cisplatin was used as a positive control. […] After the MTT interaction, the FRAP wells were emptied, and DMSO solution was placed in them. The formazan crystals formed were dissolved with this solution, and the number of viable cells in each well was determined by color change.
The subject of data set [7] is L929 mouse fibroblast cell line. The data set is described as follows: MTT cell viability assay on L929. The settings on record: for toxicity in L929 healthy cell line: 100 μM, 24 h, triplicate; for IC50: read-out: IC50 L929.
Description: as §5, §6
The next data set is described as follows: FRAP antioxidant assay. The note with it: trolox standard curve. The protocol: The FRAP method was used to determine the antioxidant power of compounds. This method, which determines the reducing power of compounds, was developed by Benzie and Strain.[48] Fe(III)–TPTZ complex is formed as a result of the reaction of Fe(III) with tripyridyltriazine (TPTZ), and this complex is reduced to the Fe(II)–TPTZ complex with the antioxidant in the environment. The color of this complex is dark blue and gives the maximum absorbance at 593 nm.[48] Incubation is performed for up to 30 min to complete the reaction, and the correct absorbance values were read. The FRAP values of the samples were calculated as “μmol trolox equiv/g sample” with the help of the standard curve obtained using methanol–trolox standard solutions (0; 0.2; 0.4; 0.6; 0.8; and 1.0 μmol/mL) which were used as the positive control.[49] […]

The target of another data set is hCA II (Homo sapiens, UniProt P00918). The data set is described as follows: CA esterase activity method, hCA II. Note: key: +: active; -: not effect. The settings on record: Table S3. The class given is biochemical. The source says:
(§4) The method used to spectrophotometrically detect the antiepileptic, antiglaucoma, and […] effects of the obtained compounds in vitro is the esterase activity method. This method relies on the esterase activity of CA for the hydrolysis of p-nitrophenyl acetate as a substrate, which is a part of the reaction mechanism involving p-nitrophenol or p-nitrophenolate.

The target of a further data set is hCA I (Homo sapiens, UniProt P00915). Nature of the data set: CA esterase activity method, hCA I. Note: key: +: active; -: not effect. The class given is biochemical. The settings on record: Table S3.
Chain of hCA I (P00915 whole entry): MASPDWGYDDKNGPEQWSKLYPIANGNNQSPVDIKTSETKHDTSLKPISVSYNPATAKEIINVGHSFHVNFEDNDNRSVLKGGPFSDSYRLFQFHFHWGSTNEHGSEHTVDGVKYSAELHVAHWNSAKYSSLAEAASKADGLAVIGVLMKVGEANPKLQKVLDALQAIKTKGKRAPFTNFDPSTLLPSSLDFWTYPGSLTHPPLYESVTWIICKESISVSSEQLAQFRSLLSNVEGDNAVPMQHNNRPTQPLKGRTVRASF
Description: as §4

Data set [8] relates to L929 healthy mouse fibroblast cells. The data set is described as follows: Annexin V binding assay (flow cytometry) on L929. Format: cell-based. The note with it: L929, IC50 dose of the compound for the cancer cell line, 24 h. The protocol: as §2
For data set [9], the system named is L929 mouse fibroblast cell line.
Description: as §5, §6
Data set [10] deals with HT29 cell line. Nature of the data set: Cell cycle (DNA content) assay on HT29. The class given is cell-based, human. The settings on record: colon cancer (HT29), IC50 dose. The protocol:
as §3

Data set [11] concerns HT29 cell line. Nature of the data set: Annexin V binding assay (flow cytometry) on HT29. Format: cell-based, human. The settings on record: HT29, IC50 dose, 24 h. The protocol:
as §2

The mark [12] stands for this setting: Homo sapiens, MCF7, 24 h incubation.
Setting [13] is: Homo sapiens, HT-29, 24 h incubation.

What is called IC50 is the point on the concentration scale where inhibition reaches its midpoint. As a reminder, the viability is the share of living cells, or the viability signal relative to a control. Take `O=C(Cn1ccnc1)c1ccc(Cl)cc1` [Compound 3b, 1-(4-Chlorophenyl)-2-(1H-imidazol-1-yl)ethanone]: the half-maximal inhibitory concentration (IC50) in data set [1] (setting [12]) came to 117 ± 14.5 µM; in data set [2] (setting [13]) it was 59.6 ± 5.73 µM; in data set [5], 10.7 ± 0.38 µM; in data set [5] (Rattus norvegicus, 24 h) it was 10.7 ± 0.38 µM; in [7] (Mus musculus, L929, 24 h), 138 ± 4.06 µM. Moreover, in the data set on C6 cell line [3], the “Apoptosis profile: Early Apop.” value turned out to be 14.96%. Further, the “Apoptosis profile: Late Apop./Dead” value with C6 cell line [3] is recorded as 18.33%. For the same compound, the “Apoptosis profile: Live” value in the data set on C6 cell line [3] was 65.46%; in data set [8], 99.17%. Moreover, the “phase in which the cell cycle stopped” value in the data set with C6 cell line [4] is on record as “G0/G1 phase”. The compound further gave a viability at 24 h, 100 μM in data set [6] of at least 50%. The “toxicity in L929 healthy cell line” value in data set [7] (MTT) is given as “not toxic”. Besides, the FRAP in “FRAP antioxidant assay” is on record as 0.20 ± 0.04 μmol trolox equiv/g. Moreover, the “Effect on hCA II isoenzyme activity” value at hCA II is on record as “-”. In addition, on hCA I, the “Effect on hCA I isoenzyme activity” value is reported as “-”.

With “2-(1H-Imidazol-1-yl)-1-(4-methoxyphenyl)ethenol [Compound 4c]”, the half-inhibitory concentration (IC50) in data set [1] (24 h incubation) was 101 ± 14.5 µM; in [2] (24 h incubation) it was 88.4 ± 15.7 µM; in data set [5], 43.8 ± 5.83 µM; in [7] (24 h incubation, MTT), 194 ± 12.2 µM. Moreover, the “viability on healthy cell line at maximum dose” value in data set [9] is recorded as “at least 50%”. Also, in the data set “FRAP antioxidant assay”, the FRAP is recorded as 0.29 ± 0.05 μmol trolox equiv/g. The “Effect on hCA II isoenzyme activity” value on hCA II is “+”. At hCA I, the “Effect on hCA I isoenzyme activity” value is “+”.

For `O=C(Cn1ccnc1)c1ccccc1` [Compound 3a, 2-(1H-Imidazol-1-yl)-1-phenylethanone], the half-inhibitory concentration (IC50) turned out to be 161 ± 15.5 µM in data set [1] (setting [12]); 20.9 ± 1.02 µM in data set [2] (setting [13]); 15.76 ± 0.08 µM in [5] (Rattus norvegicus, 24 h); 174 ± 10.1 µM in data set [7] (Mus musculus, L929, 24 h). In the data set on HT29 cell line [10], the “phase in which the cell cycle stopped” value is recorded as “G0/G1 phase”. Further, in the data set on HT29 cell line [11], the “Apoptosis profile: Early Apop.” value is reported as 7.83%. Moreover, in the data set with HT29 cell line [11], the “Apoptosis profile: Late Apop./Dead” value was 22.56%. Also, the “Apoptosis profile: Live” value in the data set on HT29 cell line [11] was determined as 60.77%; in data set [8], 98.37%. The same compound displayed a viability at 24 h, 100 μM in data set [6] of at least 50%. In addition, the “toxicity in L929 healthy cell line” value in data set [7] (MTT) is recorded as “not toxic”. Besides, the FRAP in the data set “FRAP antioxidant assay” is listed as 0.18 ± 0.07 μmol trolox equiv/g. The “Effect on hCA II isoenzyme activity” value on hCA II was “-”. The “Effect on hCA I isoenzyme activity” value on hCA I is given as “-”.
